From US9884868B2, “TGF-beta inhibitors” (Rigel Pharmaceuticals, Inc., priority 2015, dated 2018)
Like-named read-outs stand apart in the source and are kept apart here.

Target: HIS-TGF-βR1 T204D (Homo sapiens (Human), UniProt P36897, T204D)
Experiment: HTRF probe displacement assay with HIS-TGF-βR1 T204D
[1] = read-out: TGFbr1 IC50, HTRF probe displacement, 1 nM HIS-TGF-βR1 T204D, 1 hour at room temperature

Chain of HIS-TGF-βR1 T204D (P36897 34-503 T204D): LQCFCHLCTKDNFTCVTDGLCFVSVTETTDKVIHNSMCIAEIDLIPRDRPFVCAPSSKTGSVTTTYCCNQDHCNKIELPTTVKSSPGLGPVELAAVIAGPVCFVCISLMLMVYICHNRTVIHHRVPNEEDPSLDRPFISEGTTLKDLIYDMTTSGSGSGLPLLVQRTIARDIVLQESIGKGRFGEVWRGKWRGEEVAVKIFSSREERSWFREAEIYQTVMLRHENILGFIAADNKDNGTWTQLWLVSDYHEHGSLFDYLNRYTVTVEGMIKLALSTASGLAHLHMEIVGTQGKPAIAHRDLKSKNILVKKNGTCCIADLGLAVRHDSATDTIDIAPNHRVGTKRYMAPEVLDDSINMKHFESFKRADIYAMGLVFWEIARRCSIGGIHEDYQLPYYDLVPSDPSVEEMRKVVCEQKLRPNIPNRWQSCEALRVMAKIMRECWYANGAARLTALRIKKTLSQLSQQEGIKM

IC50 [1]	IC50	Structure (SMILES)
1.2 nM	–	CC(C)(O)c1cnc2ccc(-c3c(-c4ccc(F)cc4)ncn3CC(F)F)nn12 [Example 204′, 2-(6-(1-(2,2-difluoroethyl)-4-(4-fluorophenyl)-1H-imidazol-5-yl)imidazo[1,2-b]pyridazin-3-yl)propan-2-ol]
2.4 nM	–	N#Cc1cnc2ccc(-c3c(-c4ccc(F)cc4)ncn3C3CC3)nn12 [7′, 6-(1-cyclopropyl-4-(4-fluorophenyl)-1H-imidazol-5-yl)imidazo[1,2-b]pyridazine-3-carbonitrile]
63.2 nM	–	Cn1cnc(-c2ccc(F)c(F)c2)c1-c1ccc2cn[nH]c2c1 [Compound 65, 6-(4-(3,4-Difluorophenyl)-1-methyl-1H-imidazol-5-yl)-1H-indazole]
4.3 nM	–	CC(O)CCn1cnc(-c2ccc(F)cc2)c1-c1ccc2ncc(C(N)=O)n2c1 (centres unmarked) [156′, 6-(4-(4-fluorophenyl)-1-(3-hydroxybutyl)-1H-imidazol-5-yl)imidazo[1,2-a]pyridine-3-carboxamide]
10.5 nM	–	N#Cc1cnc2ccc(-c3[nH]cnc3-c3ccc(F)cc3)nn12 [18′, 6-(4-(4-fluorophenyl)-1H-imidazol-5-yl)imidazo[1,2-b]pyridazine-3-carbonitrile]
55 nM	–	CC(=O)Nc1nc(-c2ccc(F)cc2)c(-c2ccc3nccn3c2)[nH]1 [Example 295′, N-(4-(4-fluorophenyl)-5-(imidazo[1,2-a]pyridin-6-yl)-1H-imidazol-2-yl)acetamide]
45.4 nM	–	NC(=O)c1cnc2ccc(-c3c(-c4ccc(F)cc4)ncn3C3CNC3)nn12 [195B′, 6-(1-(azetidin-3-yl)-4-(4-fluorophenyl)-1H-imidazol-5-yl)imidazo[1,2-b]pyridazine-3-carboxamide]
21.6 nM	–	FCCCn1cnc(-c2ccc(F)c(Cl)c2)c1-c1ccc2nccn2c1 [183′, 6-(4-(3-chloro-4-fluorophenyl)-1-(3-fluoropropyl)-1H-imidazol-5-yl)imidazo[1,2-a]pyridine]
–	2.6 nM	N#Cc1cnc2ccc(-c3c(-c4ccc(F)c(Cl)c4)ncn3CCC(F)(F)F)nn12 [35′, 6-(4-(3-chloro-4-fluorophenyl)-1-(3,3,3-trifluoropropyl)-1H-imidazol-5-yl)imidazo[1,2-b]pyridazine-3-carbonitrile]
1.6 nM	–	C=Cc1cnc2ccc(-c3c(-c4ccc(F)cc4)ncn3CC(F)F)nn12 [213E′, 6-(1-(2,2-difluoroethyl)-4-(4-fluorophenyl)-1H-imidazol-5-yl)-3-vinylimidazo[1,2-b]pyridazine]
17 nM	–	N#Cc1cnc2ccc(-c3c(-c4ccc(F)cc4)ncn3C3COC3)nn12 [13′, 6-(4-(4-fluorophenyl)-1-(oxetan-3-yl)-1H-imidazol-5-yl)imidazo[1,2-b]pyridazine-3-carbonitrile]
522 nM	–	Fc1ccc(-c2ncn(CC(F)F)c2-c2ccc3nncn3c2)cc1 [Example 281′, 6-(1-(2,2-difluoroethyl)-4-(4-fluorophenyl)-1H-imidazol-5-yl)-[1,2,4]triazolo[4,3-a]pyridine]
23.2 nM	–	N#Cc1cnc2ccc(-c3c(-c4ccc(F)c(Cl)c4)ncn3CCCF)cn12 [101′, 6-(4-(3-chloro-4-fluorophenyl)-1-(3-fluoropropyl)-1H-imidazol-5-yl)imidazo[1,2-a]pyridine-3-carbonitrile]
19 nM	–	N#CCCn1cnc(-c2ccc(F)cc2)c1-c1ccc2ncc(C#N)n2n1 [268′, 6-(1-(2-cyanoethyl)-4-(4-fluorophenyl)-1H-imidazol-5-yl)imidazo[1,2-b]pyridazine-3-carbonitrile]
9.2 nM	–	CCC(C)(C)n1cnc(-c2ccc(F)cc2)c1-c1ccc2ncc(C#N)n2n1 [30′, 6-(4-(4-fluorophenyl)-1-(tert-pentyl)-1H-imidazol-5-yl)imidazo[1,2-b]pyridazine-3-carbonitrile]
5.5 nM	–	C[C@@H](O)Cn1cnc(-c2ccc(F)cc2)c1-c1ccc2ncc(C(N)=O)n2c1 [155′, (R)-6-(4-(4-fluorophenyl)-1-(2-hydroxypropyl)-1H-imidazol-5-yl)imidazo[1,2-a]pyridine-3-carboxamide]
1.2 nM	–	CC(F)(F)Cn1cnc(-c2ccc(F)cc2)c1-c1ccc2ncc(C#N)n2n1 [22′, 6-(1-(2,2-difluoropropyl)-4-(4-fluorophenyl)-1H-imidazol-5-yl)imidazo[1,2-b]pyridazine-3-carbonitrile]
999 nM	–	CC(C)C(C)n1cnc(-c2ccc(F)cc2)c1-c1ccc2ncc(C#N)n2c1 (centres unmarked) [76′, 6-(4-(4-fluorophenyl)-1-(3-methylbutan-2-yl)-1H-imidazol-5-yl)imidazo[1,2-a]pyridine-3-carbonitrile]
19.3 nM	–	CC(C1CC1)n1cnc(-c2ccc(F)cc2)c1-c1ccc2ncc(C#N)n2c1 (centres unmarked) [88′, 6-(1-(1-cyclopropylethyl)-4-(4-fluorophenyl)-1H-imidazol-5-yl)imidazo[1,2-a]pyridine-3-carbonitrile]
140 nM	–	N#Cc1cnc2ccc(-c3c(-c4ccc(F)c(Cl)c4)ncn3C3COC3)cn12 [97′, 6-(4-(3-chloro-4-fluorophenyl)-1-(oxetan-3-yl)-1H-imidazol-5-yl)imidazo[1,2-a]pyridine-3-carbonitrile]
6.6 nM	–	NC(=O)c1cnc2ccc(-c3c(-c4ccc(F)cc4)ncn3C3COC3)cn12 [173′, 6-(4-(4-fluorophenyl)-1-(oxetan-3-yl)-1H-imidazol-5-yl)imidazo[1,2-a]pyridine-3-carboxamide]
0.6 nM	–	CC(F)(F)Cn1cnc(-c2ccc(F)c(Cl)c2)c1-c1ccc2ncc(C(N)=O)n2n1 [151′, 6-(4-(3-chloro-4-fluorophenyl)-1-(2,2-difluoropropyl)-1H-imidazol-5-yl)imidazo[1,2-b]pyridazine-3-carboxamide]
5.1 nM	–	NC(=O)c1cnc2ccc(-c3c(-c4ccc(F)cc4)ncn3C(CO)CO)nn12 [129′, 6-(1-(1,3-dihydroxypropan-2-yl)-4-(4-fluorophenyl)-1H-imidazol-5-yl)imidazo[1,2-b]pyridazine-3-carboxamide]
1.8 nM	–	CC[C@@H](CF)n1cnc(-c2ccc(F)cc2)c1-c1ccc2ncc(C#N)n2n1 [Example 103′, (S)-6-(1-(1-fluorobutan-2-yl)-4-(4-fluorophenyl)-1H-imidazol-5-yl)imidazo[1,2-b]pyridazine-3-carbonitrile]
17.3 nM	–	Cn1cnc(-c2ccc(F)c(Cl)c2)c1-c1ccc2ncc(C#N)n2c1 [98′, 6-(4-(3-chloro-4-fluorophenyl)-1-methyl-1H-imidazol-5-yl)imidazo[1,2-a]pyridine-3-carbonitrile]
200 nM	–	N#Cc1cnc2ccc(-c3c(-c4ccc(F)cc4)ncn3CCCO)cn12 [75′, 6-(4-(4-fluorophenyl)-1-(3-hydroxypropyl)-1H-imidazol-5-yl)imidazo[1,2-a]pyridine-3-carbonitrile]
0.7 nM	–	CCn1cnc(-c2ccc(F)cc2)c1-c1ccc2ncc(C(N)=O)n2n1 [112′, 6-(1-ethyl-4-(4-fluorophenyl)-1H-imidazol-5-yl)imidazo[1,2-b]pyridazine-3-carboxamide]
1.5 nM	–	CC[C@@H](CF)n1cnc(-c2ccc(F)cc2)c1-c1ccc2ncc(C(N)=O)n2n1 [128′, (S)-6-(1-(1-fluorobutan-2-yl)-4-(4-fluorophenyl)-1H-imidazol-5-yl)imidazo[1,2-b]pyridazine-3-carboxamide]
55.8 nM	–	CCC(C)n1cnc(-c2ccc(F)cc2)c1-c1ccc2ncc(C#N)n2c1 (centres unmarked) [67′, 6-(1-(sec-butyl)-4-(4-fluorophenyl)-1H-imidazol-5-yl)imidazo[1,2-a]pyridine-3-carbonitrile]
